Assay results: patent US10167262B2, “Herbicidal substituted 3-arylpyrazoles” (FMC CORPORATION, priority 2014, dated 2019)

What was measured:
Experiment in all cases: Test E pre-/postemergence greenhouse test, plant response rating 0-100
Format in all cases: in vivo
[1] = tested on: dayflower (Virginia (VA) dayflower, Commelina virginica); details: scale 0 to 100; for Dayflower, VA plant response rating: Preemergence
Summary of the method: (§1)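 Pre: seeded silt loam sprayed; post: 1–4-leaf plants (2–18 cm) in peat-based mix sprayed. Formulation: non-phytotoxic solvent + surfactant. Greenhouse 14–21 d; visual rating vs controls, 0 = no effect, 100 = complete control.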

[2] = tested on: fall panicum (Panicum dichotomiflorum); details: scale 0 to 100; for Panicum, Fall plant response rating: Preemergence
Summary of the method: as §1

[3] = tested on: wild poinsettia (Euphorbia heterophylla); details: scale 0 to 100; for Poinsettia, Wild plant response rating: Preemergence
Summary of the method: as §1

[4] = tested on: field bindweed (Convolvulus arvensis); details: scale 0 to 100; for Field Bindweed plant response rating: Preemergence
Summary of the method: as §1

[5] = tested on: hairy beggarticks (Bidens pilosa); details: scale 0 to 100; for Beggarticks plant response rating: Preemergence
Summary of the method: as §1

[6] = tested on: Italian ryegrass (Lolium multiflorum); details: scale 0 to 100; for Ryegrass, Italian plant response rating: Preemergence
Summary of the method: as §1

soybean (Glycine max) = details: scale 0 to 100; for Soybean plant response rating: Preemergence
Summary of the method: as §1

corn (Zea mays) = details: scale 0 to 100; for Corn plant response rating: Preemergence
Summary of the method: as §1

[7] = tested on: barnyardgrass (Echinochloa crus-galli); details: scale 0 to 100; for Barnyardgrass plant response rating: Preemergence
Summary of the method: as §1

[8] = tested on: sandbur (southern sandbur, Cenchrus echinatus); details: scale 0 to 100; for Sandbur plant response rating: Preemergence
Summary of the method: as §1

[9] = tested on: waterhemp (common waterhemp, Amaranthus rudis); details: scale 0 to 100; for Waterhemp plant response rating: Preemergence
Summary of the method: as §1

[10] = tested on: Brazilian crabgrass (Digitaria horizontalis); details: Digitaria horizontalis, post-emergence, Postemergence, scale 0 to 100, read-out: Plant response rating, Crabgrass, Brazil
Summary of the method: as §1

COCC(=O)n1cc(C(=O)c2ccccc2)c(-c2cc(Cl)cc(Cl)c2)n1 [Compound 16, 1-[4-benzoyl-3-(3,5-dichlorophenyl)-1H-pyrazol-1-yl]-2-methoxyethanone]
100: Waterhemp plant response rating ([9]; 250 g ai/ha) | Waterhemp plant response rating ([9]; 500 g ai/ha)
0%: pest or weed control at 31 g/ha ([1]; Commelina virginica, post-emergence, Postemergence, 31 g ai/ha) | pest or weed control at 62 g/ha ([1]; Commelina virginica, post-emergence, Postemergence, 62 g ai/ha) | pest or weed control at 125 g/ha ([1]; Commelina virginica, post-emergence, Postemergence, 125 g ai/ha) | pest or weed control at 250 g/ha ([1]; Commelina virginica, post-emergence, Postemergence, 250 g ai/ha) | pest or weed control at 500 g/ha ([1]; Commelina virginica, post-emergence, Postemergence, 500 g ai/ha) | pest or weed control at 31 g/ha ([2]; Panicum dichotomiflorum, post-emergence, Postemergence, 31 g ai/ha) | pest or weed control at 62 g/ha ([2]; Panicum dichotomiflorum, post-emergence, Postemergence, 62 g ai/ha) | pest or weed control at 31 g/ha ([3]; Euphorbia heterophylla, post-emergence, Postemergence, 31 g ai/ha, read-out: Plant response rating, Poinsettia, Wild) | pest or weed control at 62 g/ha ([3]; Euphorbia heterophylla, post-emergence, Postemergence, 62 g ai/ha, read-out: Plant response rating, Poinsettia, Wild) | pest or weed control at 125 g/ha ([3]; Euphorbia heterophylla, post-emergence, Postemergence, 125 g ai/ha, read-out: Plant response rating, Poinsettia, Wild) | pest or weed control at 250 g/ha ([3]; Euphorbia heterophylla, post-emergence, Postemergence, 250 g ai/ha, read-out: Plant response rating, Poinsettia, Wild) | pest or weed control at 500 g/ha ([3]; Euphorbia heterophylla, post-emergence, Postemergence, 500 g ai/ha, read-out: Plant response rating, Poinsettia, Wild) | pest or weed control at 31 g/ha ([4]; Convolvulus arvensis, post-emergence, Postemergence, 31 g ai/ha) | pest or weed control at 62 g/ha ([4]; Convolvulus arvensis, post-emergence, Postemergence, 62 g ai/ha) | pest or weed control at 125 g/ha ([4]; Convolvulus arvensis, post-emergence, Postemergence, 125 g ai/ha) | pest or weed control at 250 g/ha ([4]; Convolvulus arvensis, post-emergence, Postemergence, 250 g ai/ha) | pest or weed control at 500 g/ha ([4]; Convolvulus arvensis, post-emergence, Postemergence, 500 g ai/ha) | pest or weed control at 31 g/ha ([6]; Lolium multiflorum, post-emergence, Postemergence, 31 g ai/ha) | pest or weed control at 62 g/ha ([6]; Lolium multiflorum, post-emergence, Postemergence, 62 g ai/ha) | pest or weed control at 125 g/ha ([6]; Lolium multiflorum, post-emergence, Postemergence, 125 g ai/ha) | pest or weed control at 250 g/ha ([6]; Lolium multiflorum, post-emergence, Postemergence, 250 g ai/ha) | pest or weed control at 500 g/ha ([6]; Lolium multiflorum, post-emergence, Postemergence, 500 g ai/ha) | plant injury at 31 g/ha (soybean (Glycine max); Glycine max, post-emergence, Postemergence, 31 g ai/ha) | plant injury at 62 g/ha (soybean (Glycine max); Glycine max, post-emergence, Postemergence, 62 g ai/ha) | plant injury at 125 g/ha (soybean (Glycine max); Glycine max, post-emergence, Postemergence, 125 g ai/ha) | plant injury at 250 g/ha (soybean (Glycine max); Glycine max, post-emergence, Postemergence, 250 g ai/ha) | plant injury at 500 g/ha (soybean (Glycine max); Glycine max, post-emergence, Postemergence, 500 g ai/ha) | Corn plant response rating (crop injury, 0 = no effect, 100 = complete kill) at 31 g/ha (corn (Zea mays); Zea mays, post-emergence, Postemergence, 31 g ai/ha) | Corn plant response rating (crop injury, 0 = no effect, 100 = complete kill) at 62 g/ha (corn (Zea mays); Zea mays, post-emergence, Postemergence, 62 g ai/ha) | Corn plant response rating (crop injury, 0 = no effect, 100 = complete kill) at 125 g/ha (corn (Zea mays); Zea mays, post-emergence, Postemergence, 125 g ai/ha) | Corn plant response rating (crop injury, 0 = no effect, 100 = complete kill) at 250 g/ha (corn (Zea mays); Zea mays, post-emergence, Postemergence, 250 g ai/ha) | Corn plant response rating (crop injury, 0 = no effect, 100 = complete kill) at 500 g/ha (corn (Zea mays); Zea mays, post-emergence, Postemergence, 500 g ai/ha) | pest or weed control at 31 g/ha ([7]; Echinochloa crus-galli, post-emergence, Postemergence, 31 g ai/ha) | pest or weed control at 62 g/ha ([7]; Echinochloa crus-galli, post-emergence, Postemergence, 62 g ai/ha) | pest or weed control at 125 g/ha ([7]; Echinochloa crus-galli, post-emergence, Postemergence, 125 g ai/ha) | pest or weed control at 250 g/ha ([7]; Echinochloa crus-galli, post-emergence, Postemergence, 250 g ai/ha) | pest or weed control at 500 g/ha ([7]; Echinochloa crus-galli, post-emergence, Postemergence, 500 g ai/ha) | pest or weed control at 31 g/ha ([8]; Cenchrus echinatus, post-emergence, Postemergence, 31 g ai/ha) | pest or weed control at 62 g/ha ([8]; Cenchrus echinatus, post-emergence, Postemergence, 62 g ai/ha) | pest or weed control at 125 g/ha ([8]; Cenchrus echinatus, post-emergence, Postemergence, 125 g ai/ha) | pest or weed control at 250 g/ha ([8]; Cenchrus echinatus, post-emergence, Postemergence, 250 g ai/ha) | pest or weed control at 500 g/ha ([8]; Cenchrus echinatus, post-emergence, Postemergence, 500 g ai/ha) | pest or weed control at 31 g/ha ([10]; 31 g ai/ha) | pest or weed control at 62 g/ha ([10]; 62 g ai/ha) | pest or weed control at 125 g/ha ([10]; 125 g ai/ha) | pest or weed control at 250 g/ha ([10]; 250 g ai/ha) | pest or weed control at 500 g/ha ([10]; 500 g ai/ha)
98%: pest or weed control at 125 g/ha ([5]; Bidens pilosa, post-emergence, Postemergence, 125 g ai/ha) | pest or weed control at 250 g/ha ([5]; Bidens pilosa, post-emergence, Postemergence, 250 g ai/ha) | pest or weed control at 500 g/ha ([5]; Bidens pilosa, post-emergence, Postemergence, 500 g ai/ha) | pest or weed control at 62 g/ha ([9]; Amaranthus tuberculatus, post-emergence, Postemergence, 62 g ai/ha) | pest or weed control at 125 g/ha ([9]; Amaranthus tuberculatus, post-emergence, Postemergence, 125 g ai/ha) | pest or weed control at 250 g/ha ([9]; Amaranthus tuberculatus, post-emergence, Postemergence, 250 g ai/ha)
65%: pest or weed control at 500 g/ha ([2]; Panicum dichotomiflorum, post-emergence, Postemergence, 500 g ai/ha)
30: Field Bindweed plant response rating ([4]; 500 g ai/ha) | Waterhemp plant response rating ([9]; 62 g ai/ha)
60%: pest or weed control at 125 g/ha ([2]; Panicum dichotomiflorum, post-emergence, Postemergence, 125 g ai/ha)
100%: pest or weed control at 62 g/ha ([5]; Bidens pilosa, post-emergence, Postemergence, 62 g ai/ha) | pest or weed control at 500 g/ha ([9]; Amaranthus tuberculatus, post-emergence, Postemergence, 500 g ai/ha)
95%: pest or weed control at 31 g/ha ([5]; Bidens pilosa, post-emergence, Postemergence, 31 g ai/ha) | pest or weed control at 31 g/ha ([9]; Amaranthus tuberculatus, post-emergence, Postemergence, 31 g ai/ha)
30%: pest or weed control at 250 g/ha ([2]; Panicum dichotomiflorum, post-emergence, Postemergence, 250 g ai/ha)
50: Beggarticks plant response rating ([5]; 250 g ai/ha)
0: Dayflower, VA plant response rating ([1]; 31 g ai/ha) | Dayflower, VA plant response rating ([1]; 62 g ai/ha) | Dayflower, VA plant response rating ([1]; 125 g ai/ha) | Dayflower, VA plant response rating ([1]; 250 g ai/ha) | Dayflower, VA plant response rating ([1]; 500 g ai/ha) | Panicum, Fall plant response rating ([2]; 31 g ai/ha) | Panicum, Fall plant response rating ([2]; 62 g ai/ha) | Panicum, Fall plant response rating ([2]; 125 g ai/ha) | Panicum, Fall plant response rating ([2]; 250 g ai/ha) | Panicum, Fall plant response rating ([2]; 500 g ai/ha) | Poinsettia, Wild plant response rating ([3]; 31 g ai/ha) | Poinsettia, Wild plant response rating ([3]; 62 g ai/ha) | Poinsettia, Wild plant response rating ([3]; 125 g ai/ha) | Poinsettia, Wild plant response rating ([3]; 250 g ai/ha) | Poinsettia, Wild plant response rating ([3]; 500 g ai/ha) | Field Bindweed plant response rating ([4]; 31 g ai/ha) | Field Bindweed plant response rating ([4]; 62 g ai/ha) | Field Bindweed plant response rating ([4]; 125 g ai/ha) | Field Bindweed plant response rating ([4]; 250 g ai/ha) | Beggarticks plant response rating ([5]; 31 g ai/ha) | Beggarticks plant response rating ([5]; 62 g ai/ha) | Ryegrass, Italian plant response rating ([6]; 31 g ai/ha) | Ryegrass, Italian plant response rating ([6]; 62 g ai/ha) | Ryegrass, Italian plant response rating ([6]; 125 g ai/ha) | Ryegrass, Italian plant response rating ([6]; 250 g ai/ha) | Ryegrass, Italian plant response rating ([6]; 500 g ai/ha) | Soybean plant response rating (soybean (Glycine max); 31 g ai/ha) | Soybean plant response rating (soybean (Glycine max); 62 g ai/ha) | Soybean plant response rating (soybean (Glycine max); 125 g ai/ha) | Soybean plant response rating (soybean (Glycine max); 250 g ai/ha) | Soybean plant response rating (soybean (Glycine max); 500 g ai/ha) | Corn plant response rating (corn (Zea mays); 31 g ai/ha) | Corn plant response rating (corn (Zea mays); 62 g ai/ha) | Corn plant response rating (corn (Zea mays); 125 g ai/ha) | Corn plant response rating (corn (Zea mays); 250 g ai/ha) | Corn plant response rating (corn (Zea mays); 500 g ai/ha) | Barnyardgrass plant response rating ([7]; 31 g ai/ha) | Barnyardgrass plant response rating ([7]; 62 g ai/ha) | Barnyardgrass plant response rating ([7]; 125 g ai/ha) | Barnyardgrass plant response rating ([7]; 250 g ai/ha) | Barnyardgrass plant response rating ([7]; 500 g ai/ha) | Sandbur plant response rating ([8]; 31 g ai/ha) | Sandbur plant response rating ([8]; 62 g ai/ha) | Sandbur plant response rating ([8]; 125 g ai/ha) | Sandbur plant response rating ([8]; 250 g ai/ha) | Sandbur plant response rating ([8]; 500 g ai/ha) | Waterhemp plant response rating ([9]; 31 g ai/ha)
70: Waterhemp plant response rating ([9]; 125 g ai/ha)
25: Beggarticks plant response rating ([5]; 125 g ai/ha)
65: Beggarticks plant response rating ([5]; 500 g ai/ha)
